Assay results: ChEMBL document CHEMBL1156829 (Proc Natl Acad Sci U S A, 2008)

Experiments:
[1] = NOVARTIS: Cytotoxicity against human hepatocellular carcinoma cell line (Huh7); format: toxicity, cell-based, Huh-7; details: Huh7 cells (hepatocellular carcinoma cell line)
Plasmodium falciparum [2] = test: NOVARTIS: Inhibition of Plasmodium falciparum W2 (drug-resistant) proliferation in erythrocyte-based infection assay; format: functional, organism-based; details: Plasmodium falciparum, W2; read-out: EC50
Plasmodium falciparum [3] = test: NOVARTIS: Inhibition of Plasmodium falciparum 3D7 (drug-susceptible) proliferation in erythrocyte-based infection assay; format: functional, organism-based; details: Plasmodium falciparum, 3D7

SMILES	CC50 [1] [nM]	EC50 (Plasmodium falciparum [2]) [nM]	EC50 (Plasmodium falciparum [3]) [nM]
OC1(c2ccc3ccccc3c2)c2c(c3ccccc3c3ccccc23)C2=NCCN21 (stereo not given)	> 10000	281	252
COc1cccc(NC(=O)c2ccc(NCCCN3CCC(C)CC3)c([N+](=O)[O-])c2)c1	18700	521	296
C=C(C[N+](C)(C)C)c1ccc([N+](=O)[O-])cc1	> 10000	279	317
CN(C)CCNC(=O)c1ccc(-c2cncc(NCc3ccc(Cl)c(Cl)c3)c2)cc1	10300	284	640
OC(CN1CCN(C2c3ccccc3-c3ccccc32)CC1)Cn1c2ccc(Cl)cc2c2cc(Cl)ccc21 (stereo not given)	> 10000	278	1200
COc1cc(C=C2CCC(=Cc3cc(OC)c(OC)c(OC)c3)C2=O)cc(OC)c1OC	> 100000	2750	2210
Cc1cc(C)c(CSc2ncnc3[nH]cnc23)c(C)c1	> 10000	> 278	> 1520
CCN1CCN(c2cc(C)c3cc(NC(=O)C=Cc4ccc(OC)cc4)ccc3n2)CC1	> 100000	2750	2020
CCN(CC)CCCNC(=S)N(Cc1cc2ccc(OC)cc2[nH]c1=O)C1CCCCC1	40800	1120	4030
CCN(CC)S(=O)(=O)c1cc(S(=O)(=O)c2ccc(Cl)c(S(=O)(=O)N(CC)CC)c2)ccc1Cl	> 10000	> 278	> 927
O=C(Nc1ccc(Oc2ccc(OC(F)(F)F)cc2)cc1)C1CC1	> 100000	2770	1670
Cc1cc(N2CCN(c3ccccn3)CC2)n2c(nc3ccccc32)c1C#N	> 100000	2760	1400
O=C(NC(CN1CCCC1)c1ccccc1)C1CCCCN1S(=O)(=O)c1ccc(Cl)cc1 (stereo not given)	18600	514	189
CC(=O)Nc1ccc2c(c1)C(=O)N(C(C(=O)NCC(=O)O)C1CC1)[C@@H](CCC(=O)O)C(=O)N2 (stereo not given in full)	> 10000	280	1260
CCCOC(=O)C1=C(C)NC2=C(C(=O)CCC2)C1c1cc(Br)c(O)c(OCC)c1 (stereo not given)	> 100000	2820	> 12500
Cn1c(SCc2cccc([N+](=O)[O-])c2)nc2c(c1=O)SCC2	> 100000	2790	3280
CCN(CC)c1scc(-c2ccc(Cl)cc2)[s+]1	25400	725	303
CN(CCCNc1ccnc2cc(Cl)ccc12)C(=O)c1ccc(Cl)c([N+](=O)[O-])c1	> 7920	226	137
O=[N+]([O-])c1ccc(S(=O)(=O)NCCCCNc2ccnc3cc(Cl)ccc23)cc1	9670	275	934
O=C(O)c1c(F)cccc1Cl	> 100000	2850	> 7730
COc1ccc2sc(Nc3nc(-c4ccccn4)cs3)nc2c1	4400	125	118
CNC(=O)c1nn(C)c2c1CC(NCC1CCCCC1)CC2 (stereo not given)	> 100000	2830	> 12500
CCCC(=O)O[C@]1(C(=O)CCl)[C@@H](C)CC2C3CCC4=CC(=O)C=C[C@]4(C)[C@@]3(F)C(=O)C[C@@]21C (stereo not given in full)	> 10000	283	1680
CCC(C)(C)c1ccc(OCCCC[n+]2cccc(C)c2C)c(C(C)(C)CC)c1	15200	430	495
O=C(C1=C(O)C(=O)N(CCCn2ccnc2)C1c1ccccc1[N+](=O)[O-])c1ccccc1 (stereo not given)	> 100000	2830	> 12500

SMILES	CC50 [1] [nM]	EC50 (Plasmodium falciparum [2]) [nM]	EC50 (Plasmodium falciparum [3]) [nM]
CCN1CCN(C(=O)Nc2ccc(Cc3ccc(NC(=O)N4CCN(CC)CC4)cc3)cc2)CC1	62000	1720	2390
Nc1cccc(Oc2ccc3c(c2)C(=O)N(c2cccc(C(=O)O)c2)C3=O)c1	> 10000	> 277	> 1250
O=C(Nc1ccc(NC(=O)Nc2ccc(C3=NCCN3)cc2)cc1)Nc1ccc(C2=NCCN2)cc1	> 10000	276	305
c1ccc(-c2nc3cc4ccccc4cc3nc2-c2ccsc2)cc1	> 100000	2830	3440
CCN1c2ccccc2N=C2C=CC(N)=CC21 (stereo not given)	> 10000	278	59.6
Cc1ncc(CN2CCC(C(=O)Nc3ccc(-n4cccn4)cc3)CC2)s1	> 100000	2830	3190
COC(=O)C1CCCN1S(=O)(=O)c1ccc2ccccc2c1 (stereo not given)	> 100000	2820	> 4940
COc1ccc(OC(C)=O)c(C=NNC(=O)C(C)Oc2ccccc2Br)c1 (stereo not given)	> 100000	2800	5100
CN1CCc2c(sc3nc(SCC(=O)NCCc4ccccc4)n(-c4ccc(Cl)cc4)c(=O)c23)C1	68500	1910	1310
FC(F)(F)COc1nc(N2CCCCC2)nc(N(c2ccccc2)c2ccccc2)n1	> 100000	2790	> 5970
COc1ccccc1CNC(=O)c1nn(-c2ccc(Cl)cc2)c(=O)c2ccccc12	> 100000	2820	1090
COc1cccc(-c2ccc(O)c(CNC3CCN(Cc4ccccc4)CC3)c2)n1	5940	163	376
Cn1nc(C(=O)N2CCc3ccccc3C2)c2c1CCC(N1CCN(Cc3cccc(F)c3)CC1)C2 (stereo not given)	8020	220	477
CC(NCCC(c1ccccc1)c1ccccc1O)c1ccccc1 (stereo not given)	> 10000	277	1120
CN(CCCNc1ccnc2cc(Cl)ccc12)C(=O)c1cccc(Cl)c1	7340	202	269
CN(CCCNc1ccnc2cc(Cl)ccc12)C(=O)COc1ccccc1	> 10000	286	98.3
COc1ccccc1CN1CCc2nc(N3CCCCC3)sc2C1	> 10000	277	454
CCN1/C(=C/c2ccc3ccccc3[n+]2CC)Sc2sc3ccccc3c21	4770	134	99.2
CC(C)NC(=O)CN(C)C1c2ccccc2CCc2ccccc21	> 9180	254	> 1380
CCOc1cccc2c(C)nc(NC(=N)N)nc12	56500	1540	358
COc1ccc(CCN2C(=O)CC(C(=O)Nc3cccc(Cl)c3)SC2=Nc2ccccc2)cc1OC (stereo not given)	> 100000	2840	3820
COc1ccc(C(=O)Oc2ccccc2-c2nc3cc(C)ccn3c2NC(C)(C)CC(C)(C)C)c(OC)c1	> 10000	283	1630
CC(C)c1ccc(NC(=O)c2ccc(NCCCN3CCN(c4cccc(Cl)c4)CC3)c([N+](=O)[O-])c2)cc1	> 100000	2810	1630
CCOc1ccc2nc(NCCNC(=O)c3ccco3)c(C)cc2c1	> 10000	> 279	> 1250
CCOC(=O)c1c[nH]c2ccc(C)cc2c1=O	> 100000	2760	2700
